Measurements published in US3954875A, “Benzophenone herbicides” (Rohm and Haas Company, priority 1973, dated 1976).

Columns and labels:
Monocots = assay: Preemergence weed control in flats (Example 14, Table II), monocot weeds; assay type: in vivo; conditions: about 2 weeks after application
Protocol: (§1) Using the procedure described below, the benzophenones of Examples 1 and 2 were evaluated for control of the following weeds:
Barnyardgrass (Echinochloa crusgalli)
Crabgrass (Digitaria spp.)
Foxtail (Setaria italica)
Johnsongrass (Sorghum halepense)
Quackgrass (Agropyron repens)
Yellow millet (Panicum miliaceaum)
Wild oats (Sesbania spp.)
(§2) The following test procedure is employed. Seeds of selected weeds are planted in soil in flats, and the flats are treated with the test compound immediately after the planting. The compound to be evaluated is dissolved in acetone, diluted with water, and sprayed over the flats using a carrier volume equivalent to 50 gallons per acre at the rate of application (pounds per acre, lb/A.) specified in the tables. About 2 weeks after the application of the test compound, the state of growth of the plants is observed and the phytotoxic effect of the compound is evaluated. Table II gives the average percent control achieved by the test compounds in terms of the percent of the plants which are killed by the compounds.

Dicots = assay: Preemergence weed control in flats (Example 14, Table II), dicot weeds; assay type: in vivo; conditions: about 2 weeks after application
Protocol: as §1
Coffeeweed (Sesbania spp.)
velvetleaf (Abutilon theophrasti)
as §2

In the case of COc1ccc(C(=O)c2cccc(C)c2)cc1C [Example 2, 4-methoxy-3,3'-dimethylbenzophenone], the “% Control, Monocots (average percent of the plants killed)” value (Monocots; 2 lb./A.) is reported as 88%, the “% Control, Monocots (average percent of the plants killed)” value (Monocots; 4 lb./A.) is reported as 93% and the “% Control, Monocots (average percent of the plants killed)” value (Monocots; 8 lb./A.) is reported as 100%. For the same compound, the “% Control, Dicots (average percent of the plants killed)” value (Dicots; 2 lb./A.) was 60%, the “% Control, Dicots (average percent of the plants killed)” value (Dicots; 4 lb./A.) was 55% and the “% Control, Dicots (average percent of the plants killed)” value (Dicots; 8 lb./A.) was 65%.
COc1ccc(C(=O)c2cccc(C(F)(F)F)c2)cc1C [Example 1, 4-methoxy-3-methyl-3'-trifluoromethylbenzophenone] was tested, and the “% Control, Monocots (average percent of the plants killed)” value (Monocots; 2 lb./A.) was 91%, the “% Control, Monocots (average percent of the plants killed)” value (Monocots; 4 lb./A.) was 97% and the “% Control, Monocots (average percent of the plants killed)” value (Monocots; 8 lb./A.) was 99%. For the same compound, the “% Control, Dicots (average percent of the plants killed)” value (Dicots; 2 lb./A.) was 65%, the “% Control, Dicots (average percent of the plants killed)” value (Dicots; 4 lb./A.) was 70% and the “% Control, Dicots (average percent of the plants killed)” value (Dicots; 8 lb./A.) was 85%.
